According to ChEMBL document CHEMBL3797121, “Novel nucleoside-based antimalarial compounds” (Bioorg Med Chem Lett, 2016):

Tests used:
[1] = Selectivity index, ratio of IC50 for rat L6 cells to IC50 for erythrocytic stage of Plasmodium falciparum K1; format: toxicity, cell-based; conditions: read-out: Ratio IC50
L6 = experiment: Cytotoxicity against rat L6 cells; format: cell-based
Plasmodium falciparum = experiment: Antimalarial activity against erythrocytic stage of Plasmodium falciparum K1 after 18 hrs by [3H]-hypoxanthine incorporation assay; format: functional, organism-based

Work on `C[C@H]1O[C@@H](n2cnc3c(N)nc(Cl)nc32)[C@H](O)[C@@H]1O` yielded a selectivity ratio [1] of 8, an IC50 (L6) of 147 µM and an IC50 (Plasmodium falciparum) of 17.5 µM.

In the case of `CNc1ncnc2c1ncn2[C@@H]1O[C@H](C)[C@@H](O)[C@H]1O`, the selectivity ratio [1] is reported as 30, the IC50 (L6) is reported as 266 µM and the IC50 (Plasmodium falciparum) is reported as 9.01 µM.

For `CNc1nc(C#N)nc2c1ncn2[C@@H]1O[C@H](C)[C@@H](O)[C@H]1O`, the selectivity ratio [1] was 3, the IC50 (L6) was 85 µM and the IC50 (Plasmodium falciparum) was 31.2 µM.

`C[C@H]1O[C@@H](n2cnc3c(N)nc(NN)nc32)[C@H](O)[C@@H]1O` showed a selectivity ratio [1] of 4, an IC50 (L6) of 188 µM and an IC50 (Plasmodium falciparum) of 42 µM.

Work on `C[C@H]1O[C@@H](n2cnc3c(N)nc(F)nc32)[C@H](O)[C@@H]1O` yielded a selectivity ratio [1] of 2, an IC50 (L6) of 2.1 µM and an IC50 (Plasmodium falciparum) of 1 µM.

For `C[C@H]1O[C@@H](n2cnc3c(N)nc(N=[N+]=[N-])nc32)[C@H](O)[C@@H]1O`, the selectivity ratio [1] was 2, the IC50 (L6) was 181 µM and the IC50 (Plasmodium falciparum) was 108 µM.

`CNc1nc(I)nc2c1ncn2[C@@H]1O[C@H](C)[C@@H](O)[C@H]1O` gave a selectivity ratio [1] of 2, an IC50 (L6) of 137 µM and an IC50 (Plasmodium falciparum) of 64.9 µM.

`C[C@H]1O[C@@H](n2cnc3c(N)nc(N)nc32)[C@H](O)[C@@H]1O` showed a selectivity ratio [1] of 22, an IC50 (L6) of 338 µM and an IC50 (Plasmodium falciparum) of 15.6 µM.

Work on `CNc1nc(F)nc2c1ncn2[C@@H]1O[C@H](C)[C@@H](O)[C@H]1O` yielded a selectivity ratio [1] of 21, an IC50 (L6) of 236 µM and an IC50 (Plasmodium falciparum) of 11.5 µM.

Molecule `C[C@H]1O[C@@H](n2cnc3c(N)nc(I)nc32)[C@H](O)[C@@H]1O` has a selectivity ratio [1] of 2, an IC50 (L6) of 110 µM and an IC50 (Plasmodium falciparum) of 55.9 µM.

For `C[C@H]1O[C@@H](n2cnc3c(N)nc(C#N)nc32)[C@H](O)[C@@H]1O`, the selectivity ratio [1] was 5, the IC50 (L6) was 177 µM and the IC50 (Plasmodium falciparum) was 33.5 µM.

Molecule `CCN(CC)CCCC(C)Nc1ccnc2cc(Cl)ccc12` (centres undefined) [CHLOROQUINE] has an IC50 (L6) of 120 µM.
